The text below walks through data of ChEMBL document CHEMBL1201862, “PubChem BioAssay data set” (2004).

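Method: 48-hour compound exposure of cells in 96-well plates, five concentrations, linear interpolation of endpoints. GI50 = concentration required for 50% inhibition of growth.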 Active and inactive are the calls of the source. Rule as the data show it: active = GI50 up to about 1.1 µM and inactive = higher. A value given as a limit tells only on which side of the number the result lay.

Some test systems named below: 786-0; A549; HCC 2998; HCT-15; HL-60; HOP-62; IGROV-1; K562; LOX IMVI; M14; MDA-MB-231; MOLT-4; OVCAR-3; OVCAR-8; RXF 393; SF-268; SNB-19; TK-10; UO-31.
Holding throughout (test): NCI tumour cell line growth inhibition, 48 h

With `CCN(CC)CCCn1c(=O)c2ccccc2n2c3c(=O)n(C)c(=O)n(C)c3nc12`, the GI50 with 786-0 is 2.21 µM (inactive); in the assay with A549, 0.959 µM (active); in the assay on HCC 2998, 8.95 µM (inactive); with HCT-15 it was 5.83 µM; in the assay on HL-60, 1.58 µM (inactive); with HOP-62 it was 2.77 µM (inactive). The GI50 with IGROV-1 was 6.58 µM (inactive); in the assay on K562, 6.79 µM (inactive); in the assay on LOX IMVI it was 3.03 µM (inactive); in the assay with M14 it was 12.3 µM (inactive); with MDA-MB-231, 13.8 µM (inactive); in the assay with MOLT-4, 0.619 µM (active). Besides, the GI50 in the assay on OVCAR-3 was 14.4 µM (inactive); in the assay with OVCAR-8, 5.08 µM (inactive); with RXF 393 it was 16 µM (inactive); in the assay on SF-268, 5.9 µM (inactive); with SNB-19, 4.88 µM (inactive); in the assay with TK-10, 15.8 µM (inactive). The GI50 in the assay with UO-31 is 4.47 µM (inactive).
Consider `Cc1c(C)c(C)c(-n2c(=O)n(C)c(=O)n2C(C)(C)C)c(C)c1C`, for which the GI50 is > 100 µM (inactive) with 786-0; > 100 µM (inactive) in the assay with A549; > 100 µM (inactive) in the assay with HCC 2998; > 100 µM in the assay with HCT-15; 40.3 µM (inactive) with HL-60; 81.1 µM (inactive) with K562. The GI50 in the assay on LOX IMVI, in the assay with M14, in the assay with MDA-MB-231, in the assay with MOLT-4, with OVCAR-3 and with RXF 393 was > 100 µM (inactive) throughout. Besides, the GI50 in the assay with SF-268, with SNB-19, in the assay on TK-10 and with UO-31 was > 100 µM (inactive) throughout.
As to `Cc1cccc2nc3cccc(C(=O)NCCC[N+](C)(CCCNC(=O)c4cccc5nc6cccc(C)c6nc45)Cc4c([N+](=O)[O-])ncn4C)c3nc12`, the GI50 in the assay with 786-0 was 4.07 µM (inactive); in the assay with A549, 0.189 µM (active); with HCC 2998, 1.67 µM (inactive); in the assay with HCT-15, 0.82 µM; with HL-60 it was 0.199 µM (active); in the assay on HOP-62, 0.993 µM (active). Further, the GI50 in the assay with IGROV-1 was 11.1 µM (inactive); in the assay on K562, 25.4 µM (inactive); with LOX IMVI, 0.0908 µM (active); in the assay on M14, 9.68 µM (inactive); with MDA-MB-231, 38.3 µM (inactive); in the assay on MOLT-4 it was 0.0396 µM (active). Besides, the GI50 in the assay on OVCAR-3 was 22 µM (inactive); with OVCAR-8, 0.0859 µM (active); with RXF 393 it was 4.01 µM (inactive); with SF-268 it was 2.43 µM (inactive); in the assay with SNB-19, > 1100 µM (inactive); with TK-10, 43.9 µM (inactive). Also, in the assay on UO-31, the GI50 is 0.726 µM (active).
For `C=CCN(CC=C)Cn1c(=S)sc2ccccc21`, the GI50 with 786-0 was > 100 µM (inactive); in the assay on A549, > 100 µM (inactive); in the assay with HCC 2998, > 100 µM (inactive); with HCT-15, 45 µM; with HL-60, 16.5 µM (inactive); with HOP-62, > 100 µM (inactive). Also, the GI50 in the assay on IGROV-1 is 36.6 µM (inactive); in the assay with LOX IMVI, 17.8 µM (inactive); with M14, > 100 µM (inactive); in the assay with MDA-MB-231, 54.3 µM (inactive); with MOLT-4 it was 94.8 µM (inactive); in the assay on OVCAR-3, > 100 µM (inactive). Further, the GI50 in the assay on OVCAR-8 was > 100 µM (inactive); with RXF 393, > 100 µM (inactive); in the assay on SF-268 it was > 100 µM (inactive); with SNB-19, > 100 µM (inactive); in the assay with TK-10 it was > 100 µM (inactive); with UO-31, 38.8 µM (inactive).
For `C[C@]12CCC(=O)C=C1CC[C@@H]1C2CC[C@]2(C)c3nn(-c4ccc(F)cc4)nc3CC12` (some centres undefined), the GI50 is 50.4 µM (inactive) in the assay on 786-0; > 100 µM (inactive) with A549; > 100 µM (inactive) in the assay on HCC 2998; > 100 µM (inactive) in the assay with HL-60; 76.2 µM (inactive) in the assay on HOP-62; > 100 µM (inactive) in the assay with IGROV-1. The GI50 with K562, in the assay on M14, with MDA-MB-231, in the assay with MOLT-4, in the assay with OVCAR-3 and in the assay on OVCAR-8 was > 100 µM (inactive) each time. Moreover, the GI50 in the assay on RXF 393 was 67.3 µM (inactive); with SF-268, > 100 µM (inactive); in the assay on SNB-19, 43.6 µM (inactive); in the assay with TK-10, > 100 µM (inactive); in the assay on UO-31, > 100 µM (inactive).
Consider `CCN(CC)CCCC(C)NC(=O)c1cc(-c2nccn2C)nc2ccc(C)cc12` (centres undefined), for which the GI50 with 786-0 was > 100 µM (inactive); with A549, > 100 µM (inactive); in the assay with HCC 2998 it was > 100 µM (inactive); in the assay with HCT-15, > 100 µM; in the assay on HL-60, > 100 µM (inactive); in the assay with HOP-62, > 100 µM (inactive). Besides, the GI50 is > 100 µM (inactive) in the assay on IGROV-1; > 100 µM (inactive) in the assay on LOX IMVI; > 100 µM (inactive) in the assay on M14; > 100 µM (inactive) with MDA-MB-231; > 10 µM (inactive) in the assay on MOLT-4; > 100 µM (inactive) with OVCAR-8. Moreover, the GI50 with RXF 393, with SF-268, in the assay on SNB-19, with TK-10 and in the assay with UO-31 was > 100 µM (inactive) each time.
Take `N#Cc1c(-c2ccc(Cl)cc2Cl)nc2[nH]nc(S)n2c1=O`: the GI50 is > 100 µM (inactive) in the assay with 786-0; > 100 µM (inactive) in the assay with A549; > 100 µM (inactive) in the assay with HCC 2998; > 100 µM in the assay with HCT-15; > 100 µM (inactive) with HL-60; > 100 µM (inactive) in the assay with HOP-62. Further, the GI50 in the assay with IGROV-1, in the assay with LOX IMVI, with M14, in the assay on MDA-MB-231, in the assay with MOLT-4 and in the assay with OVCAR-8 was > 100 µM (inactive) throughout. The GI50 with RXF 393, in the assay on SF-268, in the assay with SNB-19, in the assay on TK-10 and in the assay on UO-31 was > 100 µM (inactive) in each case.
In the case of `CN(C)c1ccc(C(=NNC(=O)c2cc3ccccc3[nH]2)c2ccc(N(C)C)cc2)cc1`, the GI50 in the assay on 786-0 was 1.53 µM (inactive); in the assay with A549, 0.637 µM (active); with HCC 2998, 0.193 µM (active); in the assay on HCT-15, 0.156 µM; in the assay on HL-60 it was 0.26 µM (active); in the assay with HOP-62, 1.77 µM (inactive). The GI50 with IGROV-1 is 0.395 µM (active); in the assay with K562 it was 0.0792 µM (active); with LOX IMVI, 0.811 µM (active); in the assay with M14, 0.185 µM (active); in the assay with MDA-MB-231, 0.457 µM (active); in the assay with MOLT-4, 0.293 µM (active). Moreover, the GI50 with OVCAR-3 was 0.276 µM (active); in the assay with OVCAR-8, 0.608 µM (active); in the assay with RXF 393, 1.15 µM (inactive); with SF-268, 0.433 µM (active); in the assay with SNB-19, 0.625 µM (active); with TK-10, 4.56 µM (inactive). Further, the GI50 in the assay on UO-31 is 0.942 µM (active).
For `COc1cc(CNc2nc3ccccc3nc2C(=O)O)cc(OC)c1OC`, the GI50 in the assay on 786-0 is > 100 µM (inactive); in the assay with A549, > 100 µM (inactive); in the assay with HCC 2998 it was > 100 µM (inactive); in the assay on HCT-15, > 100 µM; in the assay on HL-60, > 100 µM (inactive); with HOP-62 it was > 100 µM (inactive). Also, the GI50 with IGROV-1, in the assay with K562, in the assay with LOX IMVI, in the assay with MDA-MB-231, in the assay on MOLT-4 and in the assay with OVCAR-3 was > 100 µM (inactive) each time. For the same compound, the GI50 was > 100 µM (inactive) in the assay on OVCAR-8; 94 µM (inactive) in the assay on RXF 393; > 100 µM (inactive) in the assay with SF-268; > 100 µM (inactive) with TK-10; 49.2 µM (inactive) in the assay with UO-31.
As for `COc1ccc(NC(=O)CC(=O)n2nc(C)c(/N=N/c3cccc(C)c3)c2C)cc1`, the GI50 is > 100 µM (inactive) in the assay on 786-0; > 100 µM (inactive) with A549; > 100 µM (inactive) in the assay with HCC 2998; > 100 µM in the assay with HCT-15; > 100 µM (inactive) with HL-60; 37.6 µM (inactive) in the assay on HOP-62. For the same compound, the GI50 with LOX IMVI, in the assay on M14, with MDA-MB-231, in the assay with MOLT-4, in the assay on OVCAR-3 and with OVCAR-8 was > 100 µM (inactive) each time. For the same compound, the GI50 in the assay with RXF 393, with SF-268, in the assay on SNB-19, with TK-10 and with UO-31 was > 100 µM (inactive) throughout.
Take `CC(NNC(=O)c1ccc[n+]([BH2-]C#N)c1)c1ccccc1` (centres undefined): the GI50 with 786-0 was > 100 µM (inactive); in the assay on HCC 2998, > 100 µM (inactive); in the assay on HCT-15 it was > 100 µM; in the assay on HL-60, 86.1 µM (inactive); in the assay with HOP-62 it was > 100 µM (inactive); in the assay with IGROV-1, > 100 µM (inactive). Moreover, the GI50 is > 100 µM (inactive) in the assay with K562; > 100 µM (inactive) in the assay on LOX IMVI; > 100 µM (inactive) with M14; > 100 µM (inactive) in the assay with MDA-MB-231; 38.3 µM (inactive) in the assay with MOLT-4; > 100 µM (inactive) in the assay with OVCAR-3. In addition, the GI50 in the assay on OVCAR-8, in the assay with RXF 393, in the assay with SF-268, in the assay on SNB-19, with TK-10 and in the assay with UO-31 was > 100 µM (inactive) in each case.
